Test results: US20150141381A1, “TETRACYCLINE COMPOUNDS HAVING TARGET THERAPEUTIC ACTIVITIES” (Paratek Pharmaceuticals, Inc., priority 2001, published 2015)
Like-named read-outs stand apart in the source and are kept apart here.

Key:
E. coli mL308 225 = assay: In Vitro Anti-Bacterial Activity Assay (MIC), gram negative; type: cell-based; conditions: Escherichia coli, ML308225, 18 h
S. aureus RN450 = assay: In Vitro Anti-Bacterial Activity Assay (MIC), gram positive; type: cell-based; conditions: Staphylococcus aureus, RN450, 18 h
[1] = read-out: Antibiotic Activity Gram −
[2] = read-out: Antibiotic Activity Gram +
[3] = MIC class, Table 3, read-out: Antibiotic Activity Gram −
[4] = MIC class, Table 3, read-out: Antibiotic Activity Gram +

Compound | MIC (E. coli mL308 225; [3]) [µg/mL] | MIC (S. aureus RN450; [4]) [µg/mL] | other results
CN(C)[C@@H]1C(O)=C(C(N)=O)C(=O)[C@@]2(O)C(O)=C3C(=O)c4c(ccc(NC(=O)Oc5ccc(F)cc5)c4O)C[C@H]3C[C@@H]12 |  |  | MIC (E. coli mL308 225; read-out: Gram− activity): > 4 µg/mL; MIC (S. aureus RN450; read-out: Gram+ activity): > 4 µg/mL
CCOP(=O)(OCC)C(Nc1cc(N(C)C)c2c(c1O)C(=O)C1=C(O)[C@]3(O)C(=O)C(C(N)=O)=C(O)[C@@H](N(C)C)[C@@H]3C[C@@H]1C2)c1ccccc1 (some centres unmarked) [AA] |  |  | MIC (E. coli mL308 225; [1]): > 4 µg/mL; MIC (S. aureus RN450; [2]): > 4 µg/mL
CN(C)[C@@H]1C(O)=C(C(N)=O)C(=O)[C@@]2(O)C(O)=C3C(=O)c4c(O)ccc(-c5ccc(F)cc5F)c4C[C@H]3C[C@@H]12 [AB] | > 4 | < 4 | 
CN(C)[C@@H]1C(O)=C(C(N)=O)C(=O)[C@@]2(O)C(O)=C3C(=O)c4c(O)cccc4/C(=C\c4ccc(C(F)(F)F)cc4)[C@H]3[C@H](O)[C@@H]12 [AC] | > 4 | < 4 | 
CN(C)C(=O)c1cccc(-c2ccc(O)c3c2C[C@H]2C[C@H]4[C@H](N(C)C)C(O)=C(C(N)=O)C(=O)[C@@]4(O)C(O)=C2C3=O)c1 [AD] | > 4 | < 4 | 
CN(C)c1cc(NS(=O)(=O)c2ccccc2)c(O)c2c1C[C@H]1C[C@H]3[C@H](N(C)C)C(O)=C(C(N)=O)C(=O)[C@@]3(O)C(O)=C1C2=O [AE] | < 4 | < 4 | 
CN(C)c1cc(-c2ccc(Cl)cc2)c(O)c2c1C[C@H]1C[C@H]3[C@H](N(C)C)C(O)=C(C(N)=O)C(=O)[C@@]3(O)C(O)=C1C2=O [AF] | > 4 | < 4 | 
CCOc1ccccc1-c1ccc(O)c2c1C[C@H]1C[C@H]3[C@H](N(C)C)C(O)=C(C(N)=O)C(=O)[C@@]3(O)C(O)=C1C2=O [AG] | > 4 | < 4 | 
CN(C)c1cc(-c2cccc(N)c2)c(O)c2c1C[C@H]1C[C@H]3[C@H](N(C)C)C(O)=C(C(N)=O)C(=O)[C@@]3(O)C(O)=C1C2=O [AH] | > 4 | < 4 | 
CN(C)c1cc(-c2ccc(Cl)c(Cl)c2)c(O)c2c1C[C@H]1C[C@H]3[C@H](N(C)C)C(O)=C(C(N)=O)C(=O)[C@@]3(O)C(O)=C1C2=O [AI] | > 4 | < 4 | 
CN(C)c1cc(C#Cc2cccc(O)c2)c(O)c2c1C[C@H]1C[C@H]3[C@H](N(C)C)C(O)=C(C(N)=O)C(=O)[C@@]3(O)C(O)=C1C2=O [AJ] | > 4 | < 4 | 
CN(C)CC#Cc1ccc(O)c2c1C[C@H]1C[C@H]3[C@H](N(C)C)C(O)=C(C(N)=O)C(=O)[C@@]3(O)C(O)=C1C2=O [AL] | < 4 | < 4 | 
CN(C)[C@H]1C(O)=C(C(N)=O)C(=O)[C@@]2(O)C(O)=C3C(=O)c4c(O)ccc(-c5cccc(N)c5)c4C[C@H]3C[C@@H]12 [AM] | < 4 | < 4 | 
CN(C)c1cc(C#CC2(O)CCCCC2)c(O)c2c1C[C@H]1C[C@H]3[C@H](N(C)C)C(O)=C(C(N)=O)C(=O)[C@@]3(O)C(O)=C1C2=O [AN] | > 4 | > 4 | 
CC(=O)c1cccc(-c2ccc(O)c3c2C[C@H]2C[C@H]4[C@H](N(C)C)C(O)=C(C(N)=O)C(=O)[C@@]4(O)C(O)=C2C3=O)c1 [AO] | > 4 | < 4 | 
CN(C)c1cc(-c2ccc(C(=O)O)cc2)c(O)c2c1C[C@H]1C[C@H]3[C@@H](N(C)C)C(O)=C(C(N)=O)C(=O)[C@@]3(O)C(O)=C1C2=O [AP] | > 4 | > 4 | 
CN(C)C(=O)/C=C/c1ccc(O)c2c1C[C@H]1C[C@H]3[C@H](N(C)C)C(O)=C(C(N)=O)C(=O)[C@@]3(O)C(O)=C1C2=O [AQ] | < 4 | < 4 | 
CN(C)[C@@H]1C(O)=C(C(N)=O)C(=O)[C@@]2(O)C(O)=C3C(=O)c4c(ccc(CN)c4O)C[C@H]3C[C@@H]12 [AR] | < 4 | < 4 | 
COc1ccc(OC(=O)Nc2ccc3c(c2O)C(=O)C2=C(O)[C@]4(O)C(=O)C(C(N)=O)=C(O)[C@@H](N(C)C)[C@@H]4C[C@@H]2C3)cc1 [AS] |  |  | MIC (E. coli mL308 225; [1]): > 4 µg/mL; MIC (S. aureus RN450; [2]): < 4 µg/mL
CN(C)[C@@H]1C(O)=C(C(N)=O)C(=O)[C@@]2(O)C(O)=C3C(=O)c4c(ccc(NC(=O)Nc5cccc6ccccc56)c4O)C[C@H]3C[C@@H]12 [AU] | > 4 | < 4 | 
Cc1ccc(OC(=O)Nc2ccc(O)c3c2C[C@H]2C[C@H]4[C@H](N(C)C)C(O)=C(C(N)=O)C(=O)[C@@]4(O)C(O)=C2C3=O)cc1 [AV] |  |  | MIC (E. coli mL308 225; [1]): < 4 µg/mL; MIC (S. aureus RN450; [2]): < 4 µg/mL
C=C(Cl)c1ccc(O)c2c1C[C@H]1C[C@H]3[C@H](N(C)C)C(O)=C(C(N)=O)C(=O)[C@@]3(O)C(O)=C1C2=O [AW] | < 4 | < 4 | 
CCOC(=O)/C(I)=C/C(=C/c1ccc(O)c2c1C[C@H]1C[C@H]3[C@H](N(C)C)C(O)=C(C(N)=O)C(=O)[C@@]3(O)C(O)=C1C2=O)C(=O)OCC [AX] | > 4 | > 4 | 

Compound | MIC (E. coli mL308 225; [3]) [µg/mL] | MIC (S. aureus RN450; [4]) [µg/mL] | other results
CN(C)[C@@H]1C(O)=C(C(N)=O)C(=O)[C@@]2(O)C(O)=C3C(=O)c4c(O)ccc(/C=C/c5ccc(N)cc5)c4C[C@H]3C[C@@H]12 [AY] | > 4 | < 4 | 
C[C@H]1c2cccc(O)c2C(=O)C2=C(O)[C@]3(O)C(=O)C(C(N)=O)=C(O)[C@@H](N(C)C)[C@@H]3[C@@H](O)[C@@H]21 [A] | < 4 | < 4 | 
CN(C)c1cc(C#Cc2ccccn2)c(O)c2c1C[C@H]1C[C@H]3[C@H](N(C)C)C(O)=C(C(N)=O)C(=O)[C@@]3(O)C(O)=C1C2=O [BA] | > 4 | > 4 | 
CN(C)[C@@H]1C(O)=C(C(N)=O)C(=O)[C@@]2(O)C(O)=C3C(=O)c4c(O)ccc(C#CCCCC#N)c4C[C@H]3C[C@@H]12 [BB] | < 4 | < 4 | 
COc1ccc(C=O)cc1-c1ccc(O)c2c1C[C@H]1C[C@H]3[C@H](N(C)C)C(O)=C(C(N)=O)C(=O)[C@@]3(O)C(O)=C1C2=O [BC] | < 4 | < 4 | 
CC(O)C#Cc1ccc(O)c2c1C[C@H]1C[C@H]3[C@H](N(C)C)C(O)=C(C(N)=O)C(=O)[C@@]3(O)C(O)=C1C2=O (some centres unmarked) [BD] | < 4 | < 4 | 
CN(C)[C@@H]1C(O)=C(C(N)=O)C(=O)[C@@]2(O)C(O)=C3C(=O)c4c(O)ccc(C#Cc5ccc(N)cc5)c4C[C@H]3C[C@@H]12 [BE] | > 4 | < 4 | 
CN(C)[C@@H]1C(O)=C(C(N)=O)C(=O)[C@@]2(O)C(O)=C3C(=O)c4c(O)ccc(-c5cccc(C=O)c5)c4C[C@H]3C[C@@H]12 [BF] | < 4 | < 4 | 
CN(C)[C@@H]1C(O)=C(C(N)=O)C(=O)[C@@]2(O)C(O)=C3C(=O)c4c(O)ccc(C#CC(=O)O)c4C[C@H]3C[C@@H]12 [BH] | > 4 | > 4 | 
CN(C)[C@@H]1C(O)=C(C(N)=O)C(=O)[C@@]2(O)C(O)=C3C(=O)c4c(O)ccc(C#Cc5cccc(O)c5)c4C[C@H]3C[C@@H]12 [BI] | > 4 | < 4 | 
CC(=O)c1ccc(O)c2c1C[C@H]1C[C@H]3[C@H](N(C)C)C(O)=C(C(N)=O)C(=O)[C@@]3(O)C(O)=C1C2=O [BJ] | < 4 | < 4 | 
COc1cccc(CCc2ccc(O)c3c2C[C@H]2C[C@H]4[C@H](N(C)C)C(O)=C(C(N)=O)C(=O)[C@@]4(O)C(O)=C2C3=O)c1 [BK] | > 4 | < 4 | 
CN(C)[C@@H]1C(O)=C(C(N)=O)C(=O)[C@@]2(O)C(O)=C3C(=O)c4c(O)ccc(/C=C/c5ccc(Br)cc5)c4C[C@H]3C[C@@H]12 [BL] | > 4 | < 4 | 
CN(C)CC(=O)Nc1ccc(C#Cc2ccc(O)c3c2C[C@H]2C[C@H]4[C@H](N(C)C)C(O)=C(C(N)=O)C(=O)[C@@]4(O)C(O)=C2C3=O)cc1 [BM] | < 4 | < 4 | 
CN(C)[C@@H]1C(O)=C(C(N)=O)C(=O)[C@@]2(O)C(O)=C3C(=O)c4c(O)ccc(-c5ccc(C(=O)O)cc5)c4C[C@H]3C[C@@H]12 [BN] | > 4 | < 4 | 
CN(C)[C@@H]1C(O)=C(C(N)=O)C(=O)[C@@]2(O)C(O)=C3C(=O)c4c(O)ccc(C=CC(N)=O)c4C[C@H]3C[C@@H]12 [BO] | > 4 | > 4 | 
CN(C)CCCc1ccc(O)c2c1C[C@H]1C[C@H]3[C@H](N(C)C)C(O)=C(C(N)=O)C(=O)[C@@]3(O)C(O)=C1C2=O [BQ] | > 4 | < 4 | 
COc1ccc(C#Cc2cc(C#Cc3ccc(OC)cc3)c3c(c2O)C(=O)C2=C(O)[C@]4(O)C(=O)C(C(N)=O)=C(O)[C@@H](N(C)C)[C@@H]4C[C@@H]2C3)cc1 [BS] | > 4 | > 4 | 
CN(C)C1C(O)=C(C(N)=O)C(=O)[C@@]2(O)C(O)=C3C(=O)c4c(O)ccc(-c5ccc(CN6CCCC6)cc5)c4C[C@H]3C[C@@H]12 (some centres unmarked) [BT] | < 4 | < 4 | 
CN(C)[C@@H]1C(O)=C(C(N)=O)C(=O)[C@@]2(O)C(O)=C3C(=O)c4c(O)ccc(C#Cc5ccc(NS(C)(=O)=O)cc5)c4C[C@H]3C[C@@H]12 [BU] | > 4 | < 4 | 
COc1ccc(CN2CCOCC2)cc1-c1ccc(O)c2c1C[C@H]1C[C@H]3[C@H](N(C)C)C(O)=C(C(N)=O)C(=O)[C@@]3(O)C(O)=C1C2=O [BV] | > 4 | < 4 | 
COc1cc(C/C=C\c2ccc(O)c3c2C[C@H]2C[C@H]4[C@H](N(C)C)C(O)=C(C(N)=O)C(=O)[C@@]4(O)C(O)=C2C3=O)ccc1O [BW] | > 4 | < 4 | 
CN(C)[C@@H]1C(O)=C(C(N)=O)C(=O)[C@@]2(O)C(O)=C3C(=O)c4c(O)ccc(CCc5ccccn5)c4C[C@H]3C[C@@H]12 [BY] | > 4 | < 4 | 
